Measured values as given in patent US20070172509A1, “Drug Delivery System for Retarding Release of Water Soluble Drugs” (Conor Medsystems, Inc., priority 2006, published 2007).
Values after ≈ are worked out from the molar mass of the structure shown.

Tests used:
[1] = Film morphology of agent in PLGA 85/15 film cast from anisole; assay type: physicochemical; parameters: key: A—Amorphous; D—Dispersion; C—Crystalline
[2] = cited from earlier work
[3] = 5% agent in PLGA 85/15 film cast from anisole
[4] = 10% agent in PLGA 85/15 film cast from anisole
[5] = 25% agent in PLGA 85/15 film cast from anisole
[6] = 50% agent in PLGA 85/15 film cast from anisole
[7] = 75% agent in PLGA 85/15 film cast from anisole
[8] = 90% agent in PLGA 85/15 film cast from anisole

SMILES	Film Morphology [1, 3]	Film Morphology [1, 4]	Film Morphology [1, 5]	Film Morphology [1, 6]	Film Morphology [1, 7]	Film Morphology [1, 8]	water solubility [2]
Cc1cc(C(C)(C)C)c(O)c(C(C)(C)C)c1 [BHT, butylated hydroxy toluene]	A	A	A	D	Mixed	C	
O=C(OCc1ccccc1)c1ccccc1 [Benzyl Benzoate]	A	A					
CCCCOC(=O)c1ccc(O)cc1 [Butyl 4-Hydroxybenzoate]	A	A	A	C	C	C	
CC[C@@H]1/C=C(\C)C[C@H](C)C[C@H](OC)[C@H]2O[C@@](O)(C(=O)C(=O)N3CCCC[C@H]3C(=O)O[C@H](/C(C)=C/[C@@H]3CC[C@H](Cl)[C@H](OC)C3)[C@H](C)[C@@H](O)CC1=O)[C@H](C)C[C@@H]2OC [Pimecrolimus, reference compound]		A	Mixed	C			
CCCOC(=O)c1ccc(O)cc1 [Propyl 4-hydroxybenzoate]	A	A	Mixed	C	C	C	
Nc1nc(Cl)nc2c1ncn2[C@H]1C[C@H](O)[C@@H](CO)O1 [cladribine]							200 µg/mL (≈ 700 µM)
